Measured values taken from ChEMBL document CHEMBL6153037, “Developing dual-responsive quinolinium prodrugs of 8-hydroxyquinoline by harnessing the dual chelating sites” (Eur J Med Chem, 2025).
Activity calls are given as the source filed them. The rule behind the calls is not given here.

Columns and labels:
[1] = Prodrug conversion in PBS at pH 7.4 containing H2O2 assessed as PBAPE intermediate with exposed quinoline nitrogen by measuring retention time at 50 uM measured for 30 mins by HPLC analysis; assay type: ADME; settings: buffer, pH 7.4, 0.5 h
[2] = Prodrug conversion in PBS at pH 7.4 exposed to UV assessed as 8-HQ release by measuring retention time at 50 uM measured for 30 mins by HPLC analysis; assay type: ADME; settings: buffer, pH 7.4, 0.5 h
[3] = Prodrug conversion in PBS at pH 7.4 exposed to UV assessed as 8-Hydroxy-1-(4-(4,4,5,5-tetramethyl-1,3,2-dioxaborolan-2-yl)benzyl)quinolin-1-ium bromide metabolite formation by measuring retention time at 50 uM measured for 30 mins by HPLC analysis; assay type: ADME; settings: buffer, pH 7.4, 0.5 h
MDA-MB-231 [4] = assay: Cytotoxicity against human MDA-MB-231 cells incubated for 48 hrs in presence of UV by MTT assay; assay type: functional, cell-based
MDA-MB-231 [5] = assay: Cytotoxicity against human MDA-MB-231 cells incubated for 48 hrs in absence of UV by MTT assay; assay type: functional, cell-based
MCF-10A = assay: Cytotoxicity against human MCF-10A cells exposed to UV incubated for 48 hrs by MTT assay; assay type: toxicity, cell-based
MDA-MB-231 [6] = assay: Induction of apoptosis in human MDA-MB-231 cells assessed as viable cells incubated for 24 hrs in presence of UV by Annexin V-FITC/PI staining based flow cytometry (reference value: 92.06 %); assay type: functional
MDA-MB-231 [7] = assay: Induction of apoptosis in human MDA-MB-231 cells assessed as early apoptotic cells incubated for 24 hrs in presence of UV by Annexin V-FITC/PI staining based flow cytometry (reference value: 1.94 %); assay type: functional
MDA-MB-231 [8] = assay: Induction of apoptosis in human MDA-MB-231 cells assessed as late apoptotic cells incubated for 24 hrs in presence of UV by Annexin V-FITC/PI staining based flow cytometry (reference value: 2.4 %); assay type: functional
MDA-MB-231 [9] = assay: Induction of apoptosis in human MDA-MB-231 cells assessed as necrotic cells incubated for 24 hrs in presence of UV by Annexin V-FITC/PI staining based flow cytometry (reference value: 3.6 %); assay type: functional
MDA-MB-231 [10] = assay: Induction of apoptosis in human MDA-MB-231 cells assessed as viable cells incubated for 24 hrs by Annexin V-FITC/PI staining based flow cytometry (reference value: 92.06 %); assay type: functional
MDA-MB-231 [11] = assay: Induction of apoptosis in human MDA-MB-231 cells assessed as early apoptotic cells incubated for 24 hrs by Annexin V-FITC/PI staining based flow cytometry (reference value: 1.94 %); assay type: functional
MDA-MB-231 [12] = assay: Induction of apoptosis in human MDA-MB-231 cells assessed as late apoptotic cells incubated for 24 hrs by Annexin V-FITC/PI staining based flow cytometry (reference value: 2.4 %); assay type: functional
MDA-MB-231 [13] = assay: Induction of apoptosis in human MDA-MB-231 cells assessed as necrotic cells incubated for 24 hrs by Annexin V-FITC/PI staining based flow cytometry (reference value: 3.6 %); assay type: functional
MDA-MB-231 [14] = assay: Induction of cell cycle arrest in human MDA-MB-231 cells assessed as accumulation at G0/G1 phase by PI staining based flow cytometry (reference value: 43.25 %); assay type: functional
MDA-MB-231 [15] = assay: Induction of cell cycle arrest in human MDA-MB-231 cells assessed as accumulation at G0/G1 phase in presence of UV by PI staining based flow cytometry (reference value: 43.25 %); assay type: functional
MDA-MB-231 [16] = assay: Inhibition of mitochondrial membrane potential in human MDA-MB-231 cells incubated for 24 hrs by JC-1 dye based analysis (reference value: 5.51 %); assay type: functional
MDA-MB-231 [17] = assay: Inhibition of mitochondrial membrane potential in human MDA-MB-231 cells incubated for 24 hrs in presence of UV by JC-1 dye based analysis (reference value: 5.51 %); assay type: functional
[18] = Hepatorenal toxicity in ICR mouse assessed as change in ALT level at 30 mg/kg, iv measured after 48 hrs; assay type: organism-based; settings: in vivo
[19] = Hepatorenal toxicity in ICR mouse assessed as change in AST level at 30 mg/kg, iv measured after 48 hrs; assay type: organism-based; settings: in vivo
[20] = Hepatorenal toxicity in ICR mouse assessed as change in BUN level at 30 mg/kg, iv measured after 48 hrs; assay type: organism-based; settings: in vivo
[21] = Hepatorenal toxicity in ICR mouse assessed as change in serum creatinine level at 30 mg/kg, iv measured after 48 hrs; assay type: organism-based; settings: in vivo

For `Br.CC1(C)OB(c2ccc(C[n+]3cccc4cccc(OCc5ccccc5[N+](=O)[O-])c43)cc2)OC1(C)C`, the Retention_time [1] was 14.8 min, the Retention_time [2] was 3.6 min and the Retention_time [3] was 16.4 min. The Activity (MDA-MB-231 [4]) was “Dose-dependent-effect”, the Activity (MDA-MB-231 [5]) was “inactive” and the Activity (MCF-10A) was “Non-toxic”. The Activity (MDA-MB-231 [6]) was 52.82%, the Activity (MDA-MB-231 [7]) was 23.32% and the Activity (MDA-MB-231 [8]) was 19.66%. It also gave an Activity (MDA-MB-231 [9]) of 4.21%, an Activity (MDA-MB-231 [10]) of 80.18% and an Activity (MDA-MB-231 [11]) of 8.03%. The Activity (MDA-MB-231 [12]) was 10.76%, the Activity (MDA-MB-231 [13]) was 1.03% and the Activity (MDA-MB-231 [14]) was 45.12%. The Activity (MDA-MB-231 [15]) was 58.23%, the “inhibition (INH)” value (MDA-MB-231 [16]) was 15.85% and the “inhibition (INH)” value (MDA-MB-231 [17]) was 62.81%. The Activity [18] was “Non-toxic”, the Activity [19] was “Non-toxic” and the Activity [20] was “Non-toxic”. For the same molecule, the Activity [21] was “Non-toxic”.
